Reference: US20120065365A1, “Stable Radiopharmaceutical Compositions and Methods for Their Preparation” (BRACCO IMAGING S.P.A., priority 2003, published 2012)
Structures can show the parent of a compound that is named as a salt. Where two headings read alike, the source gives them in different places. Values belong to the molecule of their own block, whether it stands above or below them.

Key:
[1] = format: physicochemical; settings: stabilizer 5 mg/mL added after complex preparation; for RCP % t = 0 h: ^177Lu-A (3.34 mCi avg per aliquot), analysed 1-3.5 hrs after preparation; for RCP % t = 24 h: ^177Lu-A, room temperature
Method: In this study, sulfur-containing compounds were tested. Cysteine has been used as an antioxidant for many drugs that contain oxidizable residues.
Solutions of each individual stabilizer (10 mg/mL) were prepared in water. To a lead-shielded 4-mL vial was added 300 μL of NaOAc buffer (0.2M, pH 4.8), 29.0 mCi ^177LuCl3 and 41.4 μg COMPOUND A (dissolved in water). The ratio of COMPOUND A to Lutetium was 3:1. The reaction mixture was heated, cooled, treated with Na2EDTA.2H2O and analyzed by HPLC as described in Example 13. Seven 50-μL aliquots (3.34 mCi ^177Lu avg each) were transferred to individual HPLC vials. To one aliquot, 50 μL of water was added for use as a control sample (no stabilizer). To the other six aliquots, 50 μL of an individual stabilizer solution (0.5 mg of stabilizer) was added, and then each was analyzed by HPLC (Method 2). The control sample, and L-cysteine ethyl ester hydrochloride and L-cysteine methyl ester hydrochloride samples were analyzed again after 24 hours of storage at room temperature.

[2] = ^177Lu-A 50 mCi in 2 mL, room temperature
[3] = Radiostability (RCP, Met═O by HPLC) of preformed ^177Lu-A with individual amino acids added (Example 1); format: physicochemical; settings: amino acid 6.6 mg/mL, room temperature
Method: (§1) The injection volume was 20 μL.
Solutions of the individual amino acids L-Methionine, L-Selenomethionine, L-cysteine HCl.H2O, L-Tryptophan, L-Histidine, and Glycine were prepared at a concentration of 10 mg/mL in 10 mM Dulbecco's phosphate-buffered saline, pH 7.0 [PBS].
The final radioactive concentration of each sample was ˜20 mCi/mL.

[4] = format: physicochemical; settings: for (% RCP) 3-h / (% RCP) 6-h / (% RCP) 9-h / (% RCP) 12-h / (% RCP) 24-h / (% RCP) 0-h: ^177Lu-B (44-53 mCi) formulated with 5 mg stabilizing compound; for (% RCP) 0-h: diluted to ~2 mL, ~6° C. above room temperature; for RCP Drop over 24 hr: ^177Lu-B formulated with 5 mg stabilizing compound, 0 to 24 h
Method: The reaction vial was crimp-sealed and heated at 100° C. for 5 min. […] The sample was stored in an autosampler in which the temperature is ˜6° C. […] than room temperature, and analyzed by RP-HPLC for up to 24 hours.
L-Selenomethionine: ^177Lu-B was prepared, diluted and analyzed as described above, but 5 mg of L-Se-Met was used in place of PDTC, the heating time was 10 minutes, and the quantity of radioactivity used was 52 mCi.
L-cysteine ethyl ester, HCl: ^177Lu-B was prepared, diluted and analyzed as described above, but 5 mg of L-CEE, hydrochloride salt was used in place of PDTC, the heating time was 5 minutes and the quantity of radioactivity used was 50 mCi.
L-cysteine HCl.H2O: ^177Lu-B was prepared, diluted and analyzed as described above, but 5 mg of L-Cys HCl.H2O was used in place of PDTC, the heating time was 8 minutes and the quantity of radioactivity used was 53 mCi.

[5] = format: physicochemical; settings: for RCP % t = 0 h: ^177Lu-A (4.80 mCi) prepared in presence of stabilizer 5 mg/mL; for RCP % t = 24 h / RCP % t = 48 h / RCP (%) t = 72 h: ^177Lu-A prepared in presence of stabilizer 5 mg/mL, room temperature
Method: Solutions of L-cysteine ethyl ester hydrochloride and L-cysteine methyl ester hydrochloride (5 mg/mL) were prepared by dissolving them in NaOAc buffer (0.2 M, pH 4.8). To lead-shielded 4-mL vials were added 200 μL of the individual NaOAc-stabilizer solutions, 4.80 mCi ^177LuCl3 and 7.26 μg COMPOUND A (dissolved in water). The ratio of COMPOUND A to Lutetium was 3:1 for all samples. The reaction mixtures were heated, cooled, treated with Na2EDTA.2H2O and analyzed by HPLC as described in Example 13, and then each was stored at room temperature for 72 hours. Each sample was analyzed by HPLC (Method 2) at t=0, 24, 48 and 72 h.

[6] = format: physicochemical
Method: as §1
Each stabilizer was prepared at a concentration of 5 mg/mL in sodium acetate (NaOAc) buffer (0.2 M, pH 4.8). To lead-shielded 4-mL vials were added 200 μL of the individual stabilizer solutions, 3.55 mCi ^177LuCl3 (avg) and 5.44 μg COMPOUND A (dissolved in water). A second set of replicates of each sample was prepared, using the individual stabilizers. To these was added 4.37 mCi ^177LuCl3 (avg) and 6.7 μg (avg) COMPOUND A (dissolved in water). The ratio of COMPOUND A to lutetium was 3:1 for all samples. The reaction mixture was heated to 100° C. for 5 minutes then cooled for 5 minutes in an ambient-temperature water bath. To each sample, 10 μL of 2% Na2EDTA.2H2O in water was added, then each was analyzed by HPLC (Method 1 for the first set of replicates; Method 2 for the second set of replicates). The second set of replicates were stored and analyzed again at t=24 h.

[7] = format: physicochemical; settings: ^177Lu-A (2.7-3.7 mCi) prepared in presence of 1 mg/mL stabilizer
Method: The injection volume was 10 μL.
Each individual stabilizer was prepared at a concentration of 1 mg/mL in sodium acetate (NaOAc) buffer (0.2 M, pH 4.8). […] The reaction mixture was heated to 100° C. for 5 minutes, and then cooled for 5 minutes in an ambient-temperature water hath. To each sample, 10 μL of 2% Na2EDTA.2H2in water was added, and then each was divided into two 100-μL aliquots. One aliquot was analyzed by HPLC (Method 5) and then stored at room temperature in a sealed lead container for 24 hours. The other aliquot was stored frozen (−10° C.) for 24 hours. Each sample was analyzed at t=24 h.

[8] = format: physicochemical; settings: ^177Lu-A (3.6 mCi) prepared in presence of 2.5 mg/mL stabilizer
Method: To lead-shielded 4-mL vials was added 200 μL of the individual NaOAc-stabilizer solutions, 3.58 mCi ^177LuCl3 (avg) and 5.08 μg COMPOUND A (dissolved in water). The ratio of COMPOUND A to Lutetium was 3:1 for all samples. The reaction mixtures were heated to 100° C. for 5 minutes, then cooled, treated with Na2EDTA.2H2O, subdivided and stored as described in Example 9. The radiochemical purity (RCP) percentage data obtained are listed Table 12.

[9] = format: physicochemical; settings: ^177Lu-A 13.9 mCi/mL, stabilizer 5 mg/mL added after complex preparation, room temperature
Method: as §1
Compounds containing the —C═S moiety [dithiocarbamates and ethionamide] were examined in this study.
Each individual stabilizer was prepared at a concentration of 10 mg/mL in water. Ethionamide was dissolved in EtOH. […] The reaction mixture was heated to 100° C. for 5 minutes, then cooled for 5 minutes in an ambient-temperature water bath. […] To an aliquot, 100 μL of one of the stabilizer solutions (1 mg of stabilizer) was added. Each aliquot was analyzed (t=0 h) by HPLC (Method 2) and stored at room temperature for 48 hours. All samples were analyzed again at t=24 h and 48 h.

[10] = format: physicochemical; settings: for RCP % t = 0 h: ^177Lu-A (5.25 mCi avg) prepared in presence of stabilizer ~3.33 mg/mL
Method: as §1
Ethionamide was prepared at a 10 mg/mL concentration by dissolving it in EtOH. […] Another sample was prepared to which was added 100 μL of ethanol only (no stabilizer), for use as a control sample. […] The reaction mixture was heated to 100° C. for 5 minutes then cooled for 5 minutes in an ambient-temperature water bath. To each sample, 10 μL of 2% Na2EDTA.2H2O in water was added, and then each was analysed by HPLC (Method 2) and stored at room temperature for up to 96 hours.

[11] = ^177Lu-A prepared in presence of stabilizer ~3.33 mg/mL, room temperature

Compound: COC(=O)[C@@H](N)CSSC[C@H](N)C(=O)OC.Cl.Cl
RCP % t = 0 h [1]: 70.1%

Compound: Cl.Cl.NCCSSCCN [Cystamine dihydrochloride]
RCP % t = 0 h [1]: 66.2%

Compound: CCOC(=O)[C@@H](N)CSSC[C@H](N)C(=O)OCC.Cl.Cl [L-cysteine diethyl ester dihydrochloride]
RCP % t = 0 h [1]: 61.5%

Compound: N[C@@H](CS(=O)O)C(=O)O.O [L-cysteinesulfinic acid monohydrate]
RCP % t = 0 h [1]: 75.0%

Compound: S=c1[nH]c(=S)[nH]c(=S)[nH]1 [Trithiocyanuric acid trisodium salt nonahydrate]
RCP % t = 0 h [9]: 96.9%
RCP % t = 24 h [9]: 95.9%
RCP % t = 48 h [9]: 100%
RCP % t = 0 h [10]: 100%
RCP % t = 24 h [10, 11]: 100%
RCP % t = 96 h ([10]; ^177Lu-A prepared in presence of stabilizer ~3.33 mg/mL, room temperature, 96 h): 0%

The next lines start with the values.

% RCP 0-d ([2]; 2.5 mg/mL L-methionine (5 mg), 0 d): 96.1%
% RCP 1-d ([2]; 2.5 mg/mL L-methionine, 1 d): 53.5%
% RCP 2-d ([2]; 2.5 mg/mL L-methionine, 2 d): 26.9%
% RCP 5-d ([2]; 2.5 mg/mL L-methionine, 5 d): 0%
0-1 h RCP (%) ([3]; ^177Lu-A ~20 mCi/mL (3.5 mCi total), 0-1 h): 100%
24-h RCP (%) ([3]; ^177Lu-A ~20 mCi/mL, 24 h): 99.3%
48-h RCP (%) ([3]; ^177Lu-A ~20 mCi/mL, 48 h): 94%
Compound: CSCC[C@H](N)C(=O)O [L-Methionine]

(% RCP) 3-h [4]: 96.9%
(% RCP) 6-h [4]: 94.7%
(% RCP) 9-h [4]: 92.8%
(% RCP) 12-h [4]: 92.2%
(% RCP) 24-h [4]: 85.1%
(% RCP) 0-h [4]: 98.4%
RCP Drop over 24 hr [4]: 13.3%
RCP % t = 0 h [1]: 91.5%
RCP % t = 24 h [1]: 73.2%
RCP % t = 0 h [5]: 100%
RCP % t = 24 h [5]: 96.5%
RCP % t = 48 h [5]: 93.5%
RCP (%) t = 72 h [5]: 87.4%
Compound: CCOC(=O)[C@@H](N)CS [L-cysteine ethyl ester hydrochloride]

RCP % t = 0 h [1]: 90.4%
RCP % t = 24 h [1]: 74.4%
RCP % t = 0 h [5]: 100%
RCP % t = 24 h [5]: 97.1%
RCP % t = 48 h [5]: 93.7%
RCP (%) t = 72 h [5]: 87.2%
Compound: COC(=O)[C@@H](N)CS [L-cysteine methyl ester hydrochloride]

(% RCP) 3-h [4]: 94.7%
(% RCP) 6-h [4]: 87.3%
(% RCP) 9-h [4]: 79.4%
(% RCP) 12-h [4]: 73.6%
(% RCP) 24-h [4]: 50.9%
(% RCP) 0-h [4]: 99.1%
RCP Drop over 24 hr [4]: 48.2%
Replicate 1 RCP % t = 0 h ([6]; ^177Lu-A (3.55 mCi avg) prepared in presence of 5 mg/mL stabilizer, HPLC Method 1, t = 0 h): 93.3%
Replicate 2 RCP % t = 0 h ([6]; ^177Lu-A (4.37 mCi avg) prepared in presence of 5 mg/mL stabilizer, HPLC Method 2, t = 0 h): 91.0%
Replicate 2 RCP % t = 24 h ([6]; ^177Lu-A (4.37 mCi avg) prepared in presence of 5 mg/mL stabilizer, HPLC Method 2, t = 24 h): 67.4%
RCP % t = 24 h (frozen) ([7]; 24 h frozen (−10° C.)): 82.1%
RCP % t = 24 h (room temp) ([7]; 24 h room temp): 83.3%
RCP % t = 0 h ([7]; t = 0 h): 100%
RCP % t = 24 h (frozen) ([8]; 24 h frozen): 51.0%
RCP % t = 24 h (room temp) ([8]; 24 h room temp): 88.3%
RCP % t = 0 h ([8]; t = 0 h): 100%
Compound: N[C@@H](CS)C(=O)O [L-cysteine, L-cysteine hydrochloride monohydrate]

RCP % t = 0 h [9]: 97.8%
RCP % t = 24 h [9]: 97.1%
RCP % t = 48 h [9]: 96.2%
RCP % t = 0 h [10]: 52.8%
RCP % t = 24 h [10, 11]: 0%
Compound: CCN(CC)C(=S)S [Sodium diethyldithiocarbamate trihydrate, Diethyldithiocarbamate sodium salt]
